Experimental data reported in patent publication US20230050846A1, “TREATMENT OF HEPATIC AND CARDIOVASCULAR DISORDERS” (LIFESEARCH, priority 2019, published 2023).
Read-outs that look alike come from different tables or passages of the source. Peptide text beside a SMILES is read from it. * marks the point of attachment. Palmitoyl = CCCCCCCCCCCCCCCC(=O)*

How the values were obtained:
[1] = test system: LDLR knock-out mice; test: Biliary lipid secretions, gallbladder cannulation, dyslipidemic LDLR KO mice; type: in vivo, mouse; conditions: dyslipidemic LDL KO mice, ip 25 mg/kg, 2 h
Experimental: Wild-type C57B/L6J male mice were purchased from Janvier Labs (Le Genest Saint Isle, France). LDLR knock-out mice (males, C57B/L6J background) were obtained from The Jackson Laboratory (Bar Harbor, Me., USA). Mice were caged in animal rooms under specific pathogen free conditions at the animal facility of Rangueil (Anexplo platform, US006, Toulouse, France) with a light/dark schedule of 12 h/12 h and were fed ad libitum with a normal chow diet (#V1535 R/M-H, Ssniff, Germany). […]
Depending of experiments, 8 weeks old mice were intraperitoneally injected with PBS, the peptide of formula (I), the peptide of formula (II) and SCR. […] Bile flow (expressed in μL/min/100 g of body weight) was determined gravimetrically assuming a density of 1 g/mL for bile. […]
For bile acid analysis, 1 μL of bile samples was diluted with 99 μL of milliQ water then incubated with the work reagent (6 mg NAD, 0.5 M hydrazine hydrate buffer, 0.05 M Na-pyrophosphate) for 4 min. The mix was then incubated with a start reagent (0.03 M Tris-EDTA; 0.3 U/mL 3-alpha-OH steroid dehydrogenase) and measured for 30 min, under excitation of 340/330 nm and emission of 440/420 nm. […] The mix was then incubated with a start reagent (1 M MOPS, pH 8, 50 U/mL Choline oxidase) and measured for 67.5 min, under excitation of 340/330 and emission of 440/40. […]

[2] = Stability in plasma and serum (LC-HRMS); type: in vitro ADME, human and mouse; conditions: 37° C.
Experimental: Peptide of Formula (I) or peptide of Formula (II) were prepared at a concentration of 200 μg/mL in PBS or mixed with EDTA plasma or serum from human (Etablissement Frangais du Sang, EFS) or mouse (C57BL/6J, cardiac puncture). Aliquots from PBS samples (40 μL) were incubated at 4° C. or 37° C. for 0, 1, 2 and 4 weeks. Aliquots from plasma and serum samples (50 μL) were incubated at 4° C. or 37° C. for 0, 1, 2, 4, 6, 12, 24 h.
A mixed solution of peptides of formula (I) and (II) was constituted and serially diluted in PBS to obtain seven standard solutions, ranging from 200 μg/mL to 0.2 μg/mL. In parallel, a mixed solution of labelled peptides of Formula (I) and (II) (Thermo Scientific, Biopolymers Darmstadt, Germany) was prepared in PBS at 100 μg/mL. The mixed solution of labelled peptides (25 μL) was added to 25 μL of standard solutions as well as to PBS, plasma and serum samples. Acetonitrile (150 μL) was added to each sample to precipitate plasma/serum proteins. After centrifugation (10,000×g, 4° C., 10 min), the clear supernatants (150 μL) were dried under a gentle stream of nitrogen (45° C.), reconstituted with 10% acetonitrile containing 0.1% formic acid (100 μL), and injected into the liquid chromatography-high-resolution mass spectrometry (LC-HRMS) system. LC-HRMS analyses were performed on an H-Class UPLC system (Waters Corporation, Milford, Mass., USA) by injection of 10 μL of samples onto an Acquity® Peptide CSH C18 column (2.1 mm×150 mm, 1.7 μm; Waters Corporation) held at 60° C. The mobile phase was composed of 5% acetonitrile as solvent A and 100% acetonitrile as solvent B, each containing 0.1% formic acid. The elution was carried out using a gradient of solvent B in solvent A over 20 min at a constant flow rate of 250 μL/min. […] HRMS detection was performed by a Synapt G2 HRMS Q-TOF mass spectrometer equipped with a Z-Spray interface for electrospray ionization (Waters Corporation). The resolution mode was applied in a mass-to-charge (m/z) ratio ranging from 200 to 4,000 at a mass resolution of 25,000 Full Width Half Maximum in the positive ionization mode. Ionization parameters were as follow: capillary voltage of 3 kV, cone voltage of 30 V, desolvatation gas flow of 900 L/hr, source temperature of 120° C., desolvatation temperature of 450° C., Nitrogen as desolvatation gas. Data were collected in the continuum mode at a rate of four spectra per second. […] Peptides were analyzed according to their major exact m/z (i 5 ppm, Table 1) and each peptide signal was normalized with that of its labelled internal standard. Peptide concentrations were calculated using calibration curves plotted from standard solutions (linear regression, 1/x weighted, origin excluded).

[3] = EDTA plasma, read-out: recovery of the peptide in plasma
[4] = serum, read-out: recovery of the peptide in serum

recovery at 24 h, 200 μg/mL [2, 3]	recovery at 24 h, 200 μg/mL [2, 4]	Compound	stimulation of biliary flux and biliary lipid secretion [1]
10%	30%	Ac-RGAGSIREAGGAFGKREQAEEERYFRAQSRE-NH2 [peptide of formula (I), CH3CO-[SEQ ID NO: 1]-NH2]	maintained
50%	100%	CCCCCCCCCCCCCCCC(=O)NCCCC[C@H](NC(=O)[C@H](CCC(=O)O)NC(=O)[C@H](CCCNC(=N)N)NC(=O)[C@H](CO)NC(=O)[C@H](CCC(N)=O)NC(=O)[C@H](C)NC(=O)[C@H](CCCNC(=N)N)NC(=O)[C@H](Cc1ccccc1)NC(=O)[C@H](Cc1ccc(O)cc1)NC(=O)[C@H](CCCNC(=N)N)NC(=O)[C@H](CCC(=O)O)NC(=O)[C@H](CCC(=O)O)NC(=O)[C@H](CCC(=O)O)NC(=O)[C@H](C)NC(=O)[C@H](CCC(N)=O)NC(=O)[C@H](CCC(=O)O)NC(=O)[C@H](CCCNC(=N)N)NC(=O)[C@H](CCCCN)NC(=O)CNC(=O)[C@H](Cc1ccccc1)NC(=O)[C@H](C)NC(=O)CNC(=O)CNC(=O)[C@H](C)NC(=O)[C@H](CCC(=O)O)NC(=O)[C@H](CCCNC(=N)N)NC(=O)[C@@H](NC(=O)[C@H](CO)NC(=O)CNC(=O)[C@H](C)NC(=O)CNC(=O)[C@H](CCCNC(=N)N)NC(C)=O)[C@@H](C)CC)C(N)=O [peptide of formula (II), CH3CO-[SEQ ID NO: 1]-K-[palmitoyl]-NH2] (Ac-RGAGSIREAGGAFGKREQAEEERYFRAQSREK(Palmitoyl)-NH2)	maintained
